Results: US10351522B2, “Sulfonamide derivative and pharmaceutically acceptable acid addition salt thereof” (UNIVERSITY OF TSUKUBA, priority 2015, dated 2019)
Read-outs that look alike come from different tables or passages of the source.

Experiments:
[1] = biological target: T1, human OX2R (Homo sapiens, UniProt O43614); assay: Agonist activity against OX2R: intracellular calcium (Fura-2AM, FDSS7000) in CHOOX2R cells; type: cell-based; conditions: relative to orexin-A as full agonist (100%)
T1 construct: expressed in transfected cells; host or cells: CHO (Chinese hamster ovary) cells, line CHOOX2R, co-expressing NFAT-luciferase
T1 sequence (O43614 1-444): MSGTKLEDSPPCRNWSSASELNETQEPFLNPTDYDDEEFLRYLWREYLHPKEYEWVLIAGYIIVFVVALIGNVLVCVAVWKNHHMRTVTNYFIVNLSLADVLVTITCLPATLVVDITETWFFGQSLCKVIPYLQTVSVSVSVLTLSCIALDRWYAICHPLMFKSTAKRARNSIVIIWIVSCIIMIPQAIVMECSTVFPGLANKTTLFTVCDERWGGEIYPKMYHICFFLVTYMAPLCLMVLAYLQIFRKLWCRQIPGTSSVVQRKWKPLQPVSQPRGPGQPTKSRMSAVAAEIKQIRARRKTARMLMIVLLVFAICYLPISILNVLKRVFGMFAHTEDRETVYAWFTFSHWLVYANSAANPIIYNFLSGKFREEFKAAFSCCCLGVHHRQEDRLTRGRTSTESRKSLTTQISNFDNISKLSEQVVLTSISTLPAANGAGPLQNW
In short: (§1)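 CHO cells stably expressing human OX1R or OX2R (plus NFAT-luciferase) were loaded with 5 μM Fura-2AM for 60 min, then given compound at 10^−7 to 10^−5 M final (1% DMSO). Calcium change read as 340/380 nm excitation fluorescence ratio; response expressed as % of orexin-A maximal activity at 10, 1.0 and 0.1 μM.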

[2] = biological target: T2, human OX1R (Homo sapiens, UniProt O43613); assay: Agonist activity against OX1R: intracellular calcium (Fura-2AM, FDSS7000) in CHOOX1R cells; type: cell-based; conditions: relative to orexin-A as full agonist (100%); for Emax at 0.1 µM / Emax at 1 µM / Emax at 10 µM: read-out: Response (%) OX1R
T2 construct: expressed in transfected cells; host or cells: CHO (Chinese hamster ovary) cells, line CHOOX1R, co-expressing NFAT-luciferase
T2 sequence (O43613 1-425): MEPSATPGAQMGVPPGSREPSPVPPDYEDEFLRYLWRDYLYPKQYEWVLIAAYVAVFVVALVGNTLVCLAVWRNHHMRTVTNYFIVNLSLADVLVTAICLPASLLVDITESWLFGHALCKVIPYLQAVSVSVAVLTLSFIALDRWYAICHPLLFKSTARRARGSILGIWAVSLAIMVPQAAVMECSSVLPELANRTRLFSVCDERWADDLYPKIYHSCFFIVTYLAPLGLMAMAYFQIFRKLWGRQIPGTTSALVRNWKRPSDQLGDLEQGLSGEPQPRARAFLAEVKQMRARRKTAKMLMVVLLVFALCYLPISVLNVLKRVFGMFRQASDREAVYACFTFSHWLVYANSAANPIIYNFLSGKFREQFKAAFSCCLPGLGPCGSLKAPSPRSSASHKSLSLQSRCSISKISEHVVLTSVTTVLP
In short: as §1

COc1cccc(CNc2cccc(NS(=O)(=O)c3cc(-c4cccc(C(=O)N(C)C)c4)ccc3OC)c2)c1 [Example 23]
Response (%) OX2R ([1]; 0.1 μM test compound): 54% | Response (%) OX2R ([1]; 1.0 μM test compound): 95% | Response (%) OX2R ([1]; 10 μM test compound): 86% | Response (%) OX1R ([2]; 0.1 μM test compound): <5% | Response (%) OX1R ([2]; 1.0 μM test compound): 10% | Response (%) OX1R ([2]; 10 μM test compound): 51%

COc1ccc(-c2cccc(C(=O)N(C)C)c2)cc1S(=O)(=O)Nc1cccc(Nc2c(OC)c(=O)c2=O)c1 [Example 79, 4′-methoxy-3′-(N-(3-((2-methoxy-3,4-dioxocyclobut-1-en-1-yl)amino)phenyl)sulfamoyl)-N,N-dimethyl-[1,1′-biphenyl]-3-carboxamide]
Response (%) OX2R ([1]; 0.1 μM test compound): <5% | Response (%) OX2R ([1]; 1.0 μM test compound): <5% | Response (%) OX2R ([1]; 10 μM test compound): 51% | Emax at 0.1 µM ([2]; 0.1 μM test compound): < 5% | Emax at 1 µM ([2]; 1.0 μM test compound): < 5% | Emax at 10 µM ([2]; 10 μM test compound): < 5%

COc1ccc(-c2cccc(C(=O)N(C)C)c2)cc1S(=O)(=O)Nc1cccc(NC(=O)Nc2ccc(NC(=O)OC(C)(C)C)cc2)c1 [Example 72]
Response (%) OX2R ([1]; 0.1 μM test compound): 7% | Response (%) OX2R ([1]; 1.0 μM test compound): 59% | Response (%) OX2R ([1]; 10 μM test compound): 79% | Response (%) OX1R ([2]; 0.1 μM test compound): <5% | Response (%) OX1R ([2]; 1.0 μM test compound): <5% | Response (%) OX1R ([2]; 10 μM test compound): <5%

COc1ccc(-c2cccc(C(=O)N(C)C)c2)cc1S(=O)(=O)Nc1cccc(NS(=O)(=O)N(C)C)c1 [Example 87]
Response (%) OX2R ([1]; test compound 0.1 μM): <5% | Response (%) OX2R ([1]; test compound 1.0 μM): 10% | Response (%) OX2R ([1]; test compound 10 μM): 56% | Response (%) OX1R ([2]; test compound 0.1 μM): <5% | Response (%) OX1R ([2]; test compound 1.0 μM): <5% | Response (%) OX1R ([2]; test compound 10 μM): <5%

COc1ccc(C(=O)NCCNC(=O)OC(C)(C)C)cc1S(=O)(=O)Nc1cccc(NC(=O)Nc2cccc(N(C)C)c2)c1 [Example 105]
Response (%) OX2R ([1]; test compound 0.1 μM): 9% | Response (%) OX2R ([1]; test compound 1.0 μM): 32% | Response (%) OX2R ([1]; test compound 10 μM): 92% | Response (%) OX1R ([2]; test compound 0.1 μM): 8% | Response (%) OX1R ([2]; test compound 1.0 μM): 7% | Response (%) OX1R ([2]; test compound 10 μM): 8%

COc1ccc(-c2cccc(C(=O)N(C)C)c2)cc1S(=O)(=O)Nc1cccc(NC(=O)Nc2cccc(NC(=O)OC(C)(C)C)c2)c1 [Example 62]
Response (%) OX2R ([1]; 0.1 μM test compound): 6% | Response (%) OX2R ([1]; 1.0 μM test compound): 7% | Response (%) OX2R ([1]; 10 μM test compound): 9% | Response (%) OX1R ([2]; 0.1 μM test compound): 9% | Response (%) OX1R ([2]; 1.0 μM test compound): 8% | Response (%) OX1R ([2]; 10 μM test compound): 13%

COc1ccc(-c2cccc(C(=O)N(C)C)c2)cc1S(=O)(=O)Nc1cccc(NC(=O)Nc2cccs2)c1 [Example 67]
Response (%) OX2R ([1]; 0.1 μM test compound): 15% | Response (%) OX2R ([1]; 1.0 μM test compound): 83% | Response (%) OX2R ([1]; 10 μM test compound): 103% | Response (%) OX1R ([2]; 0.1 μM test compound): 6% | Response (%) OX1R ([2]; 1.0 μM test compound): 8% | Response (%) OX1R ([2]; 10 μM test compound): 9%

COc1ccc(-c2cccc(C(=O)N(C)C)c2)cc1S(=O)(=O)Nc1cccc(N(C)C)c1 [Example 96, 3′-(N-(3-(dimethylamino)phenyl)sulfamoyl)-4′-methoxy-N,N-dimethyl-[1,1′-biphenyl]-3-carboxamide]
Response (%) OX2R ([1]; test compound 0.1 μM): <5% | Response (%) OX2R ([1]; test compound 1.0 μM): <5% | Response (%) OX2R ([1]; test compound 10 μM): 67% | Emax at 0.1 µM ([2]; test compound 0.1 μM): < 5% | Emax at 1 µM ([2]; test compound 1.0 μM): < 5% | Emax at 10 µM ([2]; test compound 10 μM): < 5%

COc1ccc(-c2cccc(C(=O)N(C)C)c2)cc1S(=O)(=O)Nc1cccc(NC(=O)Nc2cccc(C(=O)N(C)C)c2)c1 [Example 49]
Response (%) OX2R ([1]; 0.1 μM test compound): 26% | Response (%) OX2R ([1]; 1.0 μM test compound): 89% | Response (%) OX2R ([1]; 10 μM test compound): 92% | Response (%) OX1R ([2]; 0.1 μM test compound): <5% | Response (%) OX1R ([2]; 1.0 μM test compound): <5% | Response (%) OX1R ([2]; 10 μM test compound): <5%

COc1ccc(-c2cccc(C(=O)N(C)C)c2)cc1S(=O)(=O)Nc1cccc(NC(=O)Nc2cccc(C(=O)O)c2)c1 [Example 48]
Response (%) OX2R ([1]; 0.1 μM test compound): <5% | Response (%) OX2R ([1]; 1.0 μM test compound): <5% | Response (%) OX2R ([1]; 10 μM test compound): 14% | Response (%) OX1R ([2]; 0.1 μM test compound): <5% | Response (%) OX1R ([2]; 1.0 μM test compound): <5% | Response (%) OX1R ([2]; 10 μM test compound): <5%
